Experiments:
[1] = target: T1, 26S proteasome non-ATPase regulatory subunit 14 (Homo sapiens, UniProt O00487); experiment: Inhibition of 26S proteasome regulatory subunit RPN11 deubiquitinating activity in human erythrocytes using Ub4-pepOG protein substrate preincubated for 1 hr followed by substrate addition measured after 80 mins by fluorescence polarization assay
[2] = test system: HCT-116; experiment: cells; details: Homo sapiens, HCT-116, 72 h
Description: Antiproliferative activity against human HCT116 cells after 72 hrs by Cell Titer-Glo assay

[3] = target: 72 kDa type IV collagenase (Homo sapiens, UniProt P08253); experiment: Inhibition of recombinant human MMP2 catalytic domain (Tyr110 to Asp452 residues) expressed in yeast using Mca-Pro-Leu-Gly-Leu-Dpa-Ala-Arg-NH2.AcOH as substrate preincubated for 30 mins followed by substrate addition measured every minute for 20 mins by fluorescence assay
Sequence of 72 kDa type IV collagenase (P08253 whole entry, the tested form may be a part): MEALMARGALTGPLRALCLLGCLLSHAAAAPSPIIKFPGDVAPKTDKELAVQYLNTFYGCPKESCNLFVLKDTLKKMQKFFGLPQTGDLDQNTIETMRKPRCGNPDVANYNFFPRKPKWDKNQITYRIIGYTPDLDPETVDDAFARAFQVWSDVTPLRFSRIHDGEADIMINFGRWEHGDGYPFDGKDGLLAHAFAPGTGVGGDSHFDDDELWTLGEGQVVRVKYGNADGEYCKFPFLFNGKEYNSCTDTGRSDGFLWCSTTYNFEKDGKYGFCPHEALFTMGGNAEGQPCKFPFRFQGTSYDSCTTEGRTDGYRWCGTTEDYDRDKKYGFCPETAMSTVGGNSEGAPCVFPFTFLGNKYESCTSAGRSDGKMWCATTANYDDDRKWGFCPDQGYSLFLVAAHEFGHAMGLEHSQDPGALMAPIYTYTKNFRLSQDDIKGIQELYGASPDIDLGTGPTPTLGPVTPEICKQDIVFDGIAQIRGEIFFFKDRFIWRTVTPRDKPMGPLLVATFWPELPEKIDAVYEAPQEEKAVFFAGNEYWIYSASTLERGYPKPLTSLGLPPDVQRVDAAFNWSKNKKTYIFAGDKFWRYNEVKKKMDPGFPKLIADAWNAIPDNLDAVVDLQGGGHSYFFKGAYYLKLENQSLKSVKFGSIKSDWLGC

[4] = target: COP9 signalosome complex subunit 5 (Homo sapiens, UniProt Q92905); experiment: Inhibition of CSN5 (unknown origin) using SCFskp2-Nedd8OG as substrate after 1 hr by fluorescence polarization assay
Sequence of COP9 signalosome complex subunit 5 (Q92905 whole entry, one chain of several): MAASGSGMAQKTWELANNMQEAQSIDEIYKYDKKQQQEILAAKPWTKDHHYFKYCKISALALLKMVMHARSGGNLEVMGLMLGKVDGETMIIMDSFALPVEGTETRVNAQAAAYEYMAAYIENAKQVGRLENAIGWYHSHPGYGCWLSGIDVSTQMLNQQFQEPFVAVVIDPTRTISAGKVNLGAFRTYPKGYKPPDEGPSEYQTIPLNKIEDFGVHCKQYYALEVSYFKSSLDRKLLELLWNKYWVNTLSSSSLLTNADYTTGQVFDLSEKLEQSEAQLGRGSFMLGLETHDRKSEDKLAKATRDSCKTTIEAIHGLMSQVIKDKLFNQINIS

[5] = target: T2, STAM-binding protein (Homo sapiens, UniProt O95630); experiment: Inhibition of AMSH (unknown origin) using DiUbK63TAMRA as substrate by fluorescence assay
T2 sequence (O95630 whole entry): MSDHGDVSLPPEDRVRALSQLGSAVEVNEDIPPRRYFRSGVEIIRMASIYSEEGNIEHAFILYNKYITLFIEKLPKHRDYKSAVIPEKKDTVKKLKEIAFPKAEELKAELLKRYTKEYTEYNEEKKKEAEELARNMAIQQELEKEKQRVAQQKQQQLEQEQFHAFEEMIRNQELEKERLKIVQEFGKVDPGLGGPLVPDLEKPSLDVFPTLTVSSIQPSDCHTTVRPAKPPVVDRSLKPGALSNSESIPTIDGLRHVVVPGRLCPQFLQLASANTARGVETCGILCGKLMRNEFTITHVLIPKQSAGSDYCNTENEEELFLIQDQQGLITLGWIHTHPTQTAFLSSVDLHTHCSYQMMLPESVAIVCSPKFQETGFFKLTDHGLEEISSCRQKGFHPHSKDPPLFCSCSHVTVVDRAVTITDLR

[6] = target: T1, 26S proteasome non-ATPase regulatory subunit 14; experiment: Inhibition of 26S proteasome regulatory subunit RPN11 deubiquitinating activity in beta5 inhibitor MG132 pretreated human HeLa cells expressing UbG76V-GFP assessed as reduction in UbG76V-GFP degradation rate by fluorescence microscopic method; format: cell-based
[7] = Aqueous solubility of the compound; format: physicochemical; details: buffer

T1 sequence (O00487 whole entry): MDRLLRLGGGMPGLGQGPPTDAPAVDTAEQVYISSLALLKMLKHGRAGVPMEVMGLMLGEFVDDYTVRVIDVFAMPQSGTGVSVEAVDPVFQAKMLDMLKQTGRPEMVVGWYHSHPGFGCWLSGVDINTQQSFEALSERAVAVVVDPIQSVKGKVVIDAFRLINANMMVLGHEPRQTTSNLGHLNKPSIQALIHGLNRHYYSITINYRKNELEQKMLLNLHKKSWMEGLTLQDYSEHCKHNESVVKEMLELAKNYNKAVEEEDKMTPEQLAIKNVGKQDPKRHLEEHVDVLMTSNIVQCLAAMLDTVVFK

Structure (SMILES) | IC50 [1] [µM] | IC50 [2] [µM] | IC50 [3] [µM] | IC50 [4] [µM] | IC50 [5] [µM] | IC50 [6] [µM] | solubility [7]
Sc1cccc2ccccc12 | > 100 | > 100 | – | – | – | – | –
Cc1ccc2cccc(S)c2n1 | > 100 | > 50 | > 200 | > 100 | – | – | –
O=C(NCCN1CCOCC1)c1cnc2c(SSc3cccc4cc(C(=O)NCCN5CCOCC5)cnc34)cccc2c1 | – | – | – | > 100 | 26 | > 10 | –
O=C(NCCc1nccs1)c1ccc2c(SSc3cccc4nc(C(=O)NCCc5nccs5)ccc34)cccc2n1 | > 100 | – | – | 35 | > 100 | > 100 | –
O=C(NCc1nccs1)c1cnc2c(SSc3cccc4cc(C(=O)NCc5nccs5)cnc34)cccc2c1 | – | – | – | 24 | – | – | Soluble
O=C(O)c1ccc2cccc(SSc3cccc4ccc(C(=O)O)nc34)c2n1 | > 20 | – | – | – | – | – | –
CNC(=O)c1cnc2c(SSc3cccc4cc(C(=O)NC)cnc34)cccc2c1 | – | – | – | – | 4.1 | – | –
O=C(NCc1ccccn1)c1cnc2c(SSc3cccc4cc(C(=O)NCc5ccccn5)cnc34)cccc2c1 | 4 | – | – | > 50 | 17 | > 10 | Soluble
O=C(NCC1CCCO1)c1cnc2c(SSc3cccc4cc(C(=O)NCC5CCCO5)cnc34)cccc2c1 (stereo not given) | – | – | – | – | – | 1 | Soluble
O=C(O)c1cnc2c(SSc3cccc4cc(C(=O)O)cnc34)cccc2c1 | 1.1 | – | – | – | – | – | –
O=C(NCc1ccc2c(c1)OCO2)c1cnc2c(SSc3cccc4cc(C(=O)NCc5ccc6c(c5)OCO6)cnc34)cccc2c1 | – | – | – | – | < 0.2 | > 10 | Insoluble
COC(=O)CNC(=O)c1cnc2c(SSc3cccc4cc(C(=O)NCC(=O)OC)cnc34)cccc2c1 | > 2 | – | – | > 100 | 2.2 | > 0.3 | –
COC(=O)c1ccc2cccc(SSc3cccc4ccc(C(=O)OC)nc34)c2n1 | > 50 | – | – | – | – | – | –
Cc1cccc2cccnc12 | > 100 | > 100 | – | – | – | – | –
O=C(NCc1ccccc1)c1ccc2cccc(SSc3cccc4ccc(C(=O)NCc5ccccc5)nc34)c2n1 | > 100 | – | – | – | – | – | –
O=C(NCc1ccc(F)cc1)c1cnc2c(SSc3cccc4cc(C(=O)NCc5ccc(F)cc5)cnc34)cccc2c1 | < 0.2 | – | – | – | 0.9 | > 10 | Insoluble
O=C(NCc1cccnc1)c1cnc2c(SSc3cccc4cc(C(=O)NCc5cccnc5)cnc34)cccc2c1 | 3.2 | – | – | > 100 | – | > 10 | Soluble
O=C(NCCc1nccs1)c1cnc2c(O)cccc2c1 | > 40 | – | – | > 100 | > 100 | > 100 | –
O=C(Nc1ncco1)c1cnc2c(SSc3cccc4cc(C(=O)Nc5ncco5)cnc34)cccc2c1 | 2.6 | – | – | 15 | 5 | > 10 | Soluble
O=C(NCCc1ccco1)c1cnc2c(SSc3cccc4cc(C(=O)NCCc5ccco5)cnc34)cccc2c1 | – | – | – | – | – | 1.4 | Soluble

Structure (SMILES) | IC50 [1] [µM] | IC50 [2] [µM] | IC50 [3] [µM] | IC50 [4] [µM] | IC50 [5] [µM] | IC50 [6] [µM] | solubility [7]
O=C(NCc1ccco1)c1cnc2c(SSc3cccc4cc(C(=O)NCc5ccco5)cnc34)cccc2c1 | – | – | – | < 0.5 | – | 1 | Soluble
O=C(NCCc1cccs1)c1cnc2c(SSc3cccc4cc(C(=O)NCCc5cccs5)cnc34)cccc2c1 | – | – | – | – | – | 5 | Soluble
O=C(NCc1cccs1)c1ccc2cccc(SSc3cccc4ccc(C(=O)NCc5cccs5)nc34)c2n1 | > 100 | – | – | – | – | – | –
CSc1cccc2cccnc12 | > 100 | > 100 | – | – | – | – | –
O=C(NCc1cccs1)c1ccnc2c(SSc3cccc4c(C(=O)NCc5cccs5)ccnc34)cccc12 | 1 | – | – | – | – | – | –
O=C(NCc1cccs1)c1cnc2c(SSc3cccc4cc(C(=O)NCc5cccs5)cnc34)cccc2c1 | – | – | – | – | – | 5 | Soluble
O=C(NCc1ccccc1)c1cnc2c(SSc3cccc4cc(C(=O)NCc5ccccc5)cnc34)cccc2c1 | – | – | – | – | > 10 | > 10 | –
Sc1cccc2ncccc12 | > 100 | > 100 | – | – | – | – | –
NC(=O)c1cnc2c(SSc3cccc4cc(C(N)=O)cnc34)cccc2c1 | – | – | – | 15.3 | 1.7 | 1.2 | –
O=C(NCc1ccc(C(F)(F)F)cc1)c1cnc2c(SSc3cccc4cc(C(=O)NCc5ccc(C(F)(F)F)cc5)cnc34)cccc2c1 | 0.8 | – | – | > 100 | 3.5 | > 10 | Insoluble
Nc1cccc2cccnc12 [8-AMINOQUINOLINE] | > 100 | – | – | – | – | – | –
O=C(O)c1ccnc2c(SSc3cccc4c(C(=O)O)ccnc34)cccc12 | 1.3 | – | – | – | – | – | –
O=C(NCc1ccco1)c1ccnc2c(SSc3cccc4c(C(=O)NCc5ccco5)ccnc34)cccc12 | 2.2 | – | – | – | – | – | –
COC(=O)c1cnc2c(SSc3cccc4cc(C(=O)OC)cnc34)cccc2c1 | 0.9 | – | – | – | – | – | –
COc1ccc(CNC(=O)c2cnc3c(SSc4cccc5cc(C(=O)NCc6ccc(OC)cc6)cnc45)cccc3c2)cc1 | < 0.2 | – | – | – | – | > 10 | Insoluble
COC(=O)c1ccnc2c(SSc3cccc4c(C(=O)OC)ccnc34)cccc12 | 1 | – | – | – | – | – | –
O=C(NCc1ccncc1)c1cnc2c(SSc3cccc4cc(C(=O)NCc5ccncc5)cnc34)cccc2c1 | 0.2 | – | – | 7 | 0.5 | > 10 | –
O=C(CNC(=O)c1cnc2c(SSc3cccc4cc(C(=O)NCC(=O)NCC(=O)OCc5ccccc5)cnc34)cccc2c1)NCC(=O)OCc1ccccc1 | > 5 | – | – | > 30 | 3.5 | > 10 | –
Oc1cccc2cccnc12 [OXYQUINOLINE] | > 100 | 6 | – | – | – | – | –
CSc1cccc2cc(C(=O)NCCc3nccs3)cnc12 | > 40 | – | – | > 100 | > 100 | > 100 | –

Reference: ChEMBL document CHEMBL4049386, “Discovery of an Inhibitor of the Proteasome Subunit Rpn11” (J Med Chem, 2017)
